Converted amounts (≈) assume the structure as drawn. The source made the active and inactive calls. The rule behind the calls is not given here. Where a SMILES comes first, the peptide text is derived from it. [ ]: non-standard residue; d: D form. The star is where a group is joined. ξ: configuration not given here. Palmitoyl = CCCCCCCCCCCCCCCC(=O)*; Myristoyl = CCCCCCCCCCCCCC(=O)*; Lauroyl = CCCCCCCCCCCC(=O)*; Decanoyl = CCCCCCCCCC(=O)*; ξDab = NCCC(N)C(=O)O; ξDap = NCC(N)C(=O)O
Key:
Lipid bilayer [1] = test: Binding affinity to POPC large unilamellar vesicle at 0.2 mM by ITC method
Lipid bilayer [2] = test: Binding affinity to DPPG large unilamellar vesicles at 323 kelvin by ITC method
Lipid bilayer [3] = test: Binding affinity to POPG large unilamellar vesicle at 298 kelvin by ITC method
Lipid bilayer [4] = test: Binding affinity to DPPG large unilamellar vesicles at 298 kelvin by ITC method
Pseudomonas aeruginosa = test: Antibacterial activity against Pseudomonas aeruginosa ATCC 9027 assessed as growth inhibition measured after 18 hrs by CLSI based method; type: functional; settings: ATCC 9027, 18 h
Staphylococcus aureus = test: Antibacterial activity against Staphylococcus aureus ATCC 25923 assessed as growth inhibition measured after 18 hrs by CLSI based method; type: functional; settings: ATCC 25923, 18 h
Candida albicans = test: Antifungal activity against Candida albicans ATCC 10231 assessed as growth inhibition measured after 48 hrs by CLSI based method; type: functional; settings: ATCC 10231, 48 h
Escherichia coli = test: Antibacterial activity against Escherichia coli ATCC 25922 assessed as growth inhibition measured after 18 hrs by CLSI based method; type: functional; settings: ATCC 25922, 18 h
HaCaT = test: Cytotoxicity against human HaCaT cells assessed as growth inhibition measured after 24 hrs by MTT assay; type: cell-based
[5] = tested on: Staphylococcus epidermidis; test: Antibacterial activity against Staphylococcus epidermidis PCM 2118 assessed as growth inhibition measured after 18 hrs by CLSI based method; type: functional; settings: PCM 2118, 18 h
[6] = Surfactant-like property of compound at CMC; type: physicochemical
[7] = Binding affinity to DPPG lipid assessed as change in melting temperature at 10:1 molar ratio of lipid:lipopeptide by FTIR analysis
[8] = Critical micelle concentration of compound; type: physicochemical
[9] = Hemolytic activity in human RBC induction of hemolysis at 128 ug/ml at MIC after 60 mins by spectrophotometric method relative to control; type: cell-based, Erythrocyte; settings: human red blood cells (erythrocytes), read-out: Activity
[10] = Critical micelle concentration of compound by ITC method; type: physicochemical

SMILES | Activity (Lipid bilayer [1]) | pK (Lipid bilayer [2]) | pK (Lipid bilayer [3]) | pK (Lipid bilayer [4]) | MIC (Pseudomonas aeruginosa) [µg/mL] | MIC (Staphylococcus aureus) [µg/mL] | MIC (Candida albicans) [µg/mL] | MIC (Escherichia coli) [µg/mL] | MIC [5] [µg/mL] | gammaCMC [6] [mN/meter] | ΔTm [7] [°C] | CMC [8] [mM] | CMC [10] [mM] | IC50 (HaCaT) [µg/mL] | hemolysis at 1 h, 128 ug/ml [9] [%]
CCCCCCCCCC(=O)NCC(NC(=O)CCCCCCCCC)C(=O)O (configuration not stated) | inactive | 4.5 | 6.83 to 50.7 | 6.59 to 7.4 | – | – | – | – | – | – | – | – | – | – | –
CCCCCCCCCCCC(=O)NCC(NC(=O)CCCCCCCCCCC)C(=O)O (configuration not stated) | inactive | 5.37 | 6.34 | 7.18 | – | – | – | – | – | – | – | – | – | – | –
CCCCCCCCCC(=O)NCCCC[C@H](NC(=O)CCCCCCCCC)C(=O)N[C@@H](CCCCN)C(=O)N[C@@H](CCCCN)C(=O)N[C@@H](CCCCN)C(N)=O (Decanoyl-K(Decanoyl)KKK-NH2) | inactive | – | – | – | 8 (≈ 9.54 µM) | 64 (≈ 76.4 µM) | 8 (≈ 9.54 µM) | 16 (≈ 19.1 µM) | 2 (≈ 2.39 µM) | – | – | – | – | 18.8 (≈ 22.4 µM) | –
CCCCCCCCCC(=O)NCCC(NC(=O)CCCCCCCCC)C(=O)N[C@@H](CCCCN)C(=O)N[C@@H](CCCCN)C(=O)N[C@@H](CCCCN)C(N)=O (some centres not stated) (Decanoyl-[ξDab](Decanoyl)KKK-NH2) | inactive | – | – | – | 8 (≈ 9.87 µM) | 8 (≈ 9.87 µM) | 16 (≈ 19.7 µM) | 16 (≈ 19.7 µM) | 4 (≈ 4.94 µM) | 41.5 | 2.5 to 3 | 3.16 | – | 1.16 (≈ 1.43 µM) | –
CCCCCCCCCCCC(=O)NCCCC[C@H](NC(=O)CCCCCCCCCCC)C(=O)N[C@@H](CCCCN)C(=O)N[C@@H](CCCCN)C(=O)N[C@@H](CCCCN)C(N)=O (Lauroyl-K(Lauroyl)KKK-NH2) | inactive | – | – | – | 256 (≈ 286 µM) | 64 (≈ 71.6 µM) | 8 (≈ 8.95 µM) | 128 (≈ 143 µM) | 16 (≈ 17.9 µM) | – | – | – | – | 31.1 (≈ 34.8 µM) | –
CCCCCCCCCCCC(=O)NCC(NC(=O)CCCCCCCCCCC)C(=O)N[C@@H](CCCCN)C(=O)N[C@@H](CCCCN)C(=O)N[C@@H](CCCCN)C(N)=O (some centres not stated) (Lauroyl-[ξDap](Lauroyl)KKK-NH2) | inactive | – | – | – | 128 (≈ 150 µM) | 32 (≈ 37.5 µM) | 8 (≈ 9.39 µM) | 256 (≈ 300 µM) | 8 (≈ 9.39 µM) | 41.3 | – | 1.41 | 1.53 | 43.3 (≈ 50.8 µM) | 50
CCCCCCCCCCCCCC(=O)NCCCC[C@H](NC(=O)CCCCCCCCCCCCC)C(=O)N[C@@H](CCCCN)C(=O)N[C@@H](CCCCN)C(=O)N[C@@H](CCCCN)C(N)=O (Myristoyl-K(Myristoyl)KKK-NH2) | inactive | – | – | – | 512 (≈ 539 µM) | > 512 | 512 (≈ 539 µM) | > 512 | 256 (≈ 269 µM) | – | – | – | – | – | –
CCCCCCCCCCCCCC(=O)NCCC(NC(=O)CCCCCCCCCCCCC)C(=O)N[C@@H](CCCCN)C(=O)N[C@@H](CCCCN)C(=O)N[C@@H](CCCCN)C(N)=O (some centres not stated) (Myristoyl-[ξDab](Myristoyl)KKK-NH2) | inactive | – | – | – | > 512 | > 512 | > 512 | > 512 | > 512 | 46.9 | – | 0.45 | 0.28 to 0.53 | – | –
CCCCCCCCCCCCCC(=O)NCC(NC(=O)CCCCCCCCCCCCC)C(=O)N[C@@H](CCCCN)C(=O)N[C@@H](CCCCN)C(=O)N[C@@H](CCCCN)C(N)=O (some centres not stated) (Myristoyl-[ξDap](Myristoyl)KKK-NH2) | inactive | – | – | – | > 512 | > 512 | > 512 | > 512 | 128 (≈ 141 µM) | 46.1 | – | 0.35 | 0.35 | – | –
CCCCCCCCCCCCCCCC(=O)NCCCC[C@H](NC(=O)CCCCCCCCCCCCCCC)C(=O)N[C@@H](CCCCN)C(=O)N[C@@H](CCCCN)C(=O)N[C@@H](CCCCN)C(N)=O (Palmitoyl-K(Palmitoyl)KKK-NH2) | inactive | – | – | – | > 512 | > 512 | > 512 | > 512 | > 512 | – | – | – | – | – | –
CCCCCCCCCCCCCCCC(=O)NCCC(NC(=O)CCCCCCCCCCCCCCC)C(=O)N[C@@H](CCCCN)C(=O)N[C@@H](CCCCN)C(=O)N[C@@H](CCCCN)C(N)=O (some centres not stated) (Palmitoyl-[ξDab](Palmitoyl)KKK-NH2) | inactive | – | – | – | > 512 | > 512 | > 512 | > 512 | 256 (≈ 262 µM) | 41.5 | – | 0.32 | 0.06 to 0.22 | – | –
CCCCCCCCCCCCCCCC(=O)NCC(NC(=O)CCCCCCCCCCCCCCC)C(=O)N[C@@H](CCCCN)C(=O)N[C@@H](CCCCN)C(=O)N[C@@H](CCCCN)C(N)=O (some centres not stated) (Palmitoyl-[ξDap](Palmitoyl)KKK-NH2) | inactive | – | – | – | > 512 | > 512 | > 512 | > 512 | 512 (≈ 531 µM) | 45.9 | – | 0.32 | 0.35 to 0.7 | – | –

Continued, in another order:

Activity (Lipid bilayer [1]) | pK (Lipid bilayer [2]) | pK (Lipid bilayer [3]) | pK (Lipid bilayer [4]) | MIC (Pseudomonas aeruginosa) [µg/mL] | MIC (Staphylococcus aureus) [µg/mL] | MIC (Candida albicans) [µg/mL] | MIC (Escherichia coli) [µg/mL] | MIC [5] [µg/mL] | gammaCMC [6] [mN/meter] | ΔTm [7] [°C] | CMC [8] [mM] | CMC [10] [mM] | SMILES | IC50 (HaCaT) [µg/mL] | hemolysis at 1 h, 128 ug/ml [9] [%]
inactive | 5.06 | – | 5.76 to 7.37 | – | – | – | – | – | – | – | – | – | CCCCCCCCCC(=O)NCCC(NC(=O)CCCCCCCCC)C(=O)O (configuration not stated) | – | –
inactive | 4.52 | 4.1 | 5.14 to 7.38 | – | – | – | – | – | – | – | – | – | CCCCCCCCCCCC(=O)NCCC(NC(=O)CCCCCCCCCCC)C(=O)O (configuration not stated) | – | –
inactive | inactive | – | 4.26 to 6.99 | – | – | – | – | – | – | – | – | – | CCCCCCCCCCCCCCCC(=O)NCC(NC(=O)CCCCCCCCCCCCCCC)C(=O)O (configuration not stated) | – | –
inactive | – | – | – | 4 (≈ 5.02 µM) | 2 (≈ 2.51 µM) | 16 (≈ 20.1 µM) | 8 (≈ 10 µM) | 4 (≈ 5.02 µM) | 42.5 | 2.5 to 3 | 3.24 | – | CCCCCCCCCC(=O)NCC(NC(=O)CCCCCCCCC)C(=O)N[C@@H](CCCCN)C(=O)N[C@@H](CCCCN)C(=O)N[C@@H](CCCCN)C(N)=O (some centres not stated) (Decanoyl-[ξDap](Decanoyl)KKK-NH2) | 75 (≈ 94.2 µM) | –
inactive | – | – | – | 64 (≈ 73.9 µM) | 64 (≈ 73.9 µM) | 16 (≈ 18.5 µM) | 64 (≈ 73.9 µM) | 8 (≈ 9.23 µM) | 40 | – | 1.25 | 1.34 | CCCCCCCCCCCC(=O)NCCC(NC(=O)CCCCCCCCCCC)C(=O)N[C@@H](CCCCN)C(=O)N[C@@H](CCCCN)C(=O)N[C@@H](CCCCN)C(N)=O (some centres not stated) (Lauroyl-[ξDab](Lauroyl)KKK-NH2) | 30.7 (≈ 35.4 µM) | 13

From ChEMBL document CHEMBL4406885, “Effect of self-assembly on antimicrobial activity of double-chain short cationic lipopeptides” (Bioorg Med Chem, 2019)
